PubChem BioAssay (NCI)
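Cultured in 96-well plates, cells were exposed to test compound for 48 hours across five concentrations. The concentration for full growth arrest is given as TGI.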

Columns and labels:
Test in all cases: inhibition of tumour cell growth, NCI panel, 48 h
A498 renal = tested on: A498 renal
EKVX NSCLC = tested on: EKVX NSCLC
HOP-62 NSCLC = tested on: HOP-62 NSCLC
HOP-92 NSCLC = tested on: HOP-92 NSCLC
HT29 colon = tested on: HT29 colon
IGROV1 ovarian = tested on: IGROV1 ovarian
MALME-3M melanoma = tested on: MALME-3M melanoma
MDA-MB-231 breast = tested on: MDA-MB-231 breast
MOLT-4 leukemia = tested on: MOLT-4 leukemia
NCI/ADR-RES ovarian = tested on: NCI/ADR-RES ovarian
OVCAR-4 ovarian = tested on: OVCAR-4 ovarian
OVCAR-5 ovarian = tested on: OVCAR-5 ovarian
PC-3 prostate = tested on: PC-3 prostate
RPMI-8226 leukemia = tested on: RPMI-8226 leukemia
SF-295 CNS = tested on: SF-295 CNS
SK-MEL-2 melanoma = tested on: SK-MEL-2 melanoma
SK-MEL-5 melanoma = tested on: SK-MEL-5 melanoma
SNB-19 CNS = tested on: SNB-19 CNS
U251 CNS = tested on: U251 CNS
HL-60(TB) leukemia = tested on: HL-60(TB) leukemia

Structure (SMILES)	TGI (A498 renal)	TGI (EKVX NSCLC)	TGI (HOP-62 NSCLC)	TGI (HOP-92 NSCLC)	TGI (HT29 colon)	TGI (IGROV1 ovarian)	TGI (MALME-3M melanoma)	TGI (MDA-MB-231 breast)	TGI (MOLT-4 leukemia)	TGI (NCI/ADR-RES ovarian)	TGI (OVCAR-4 ovarian)	TGI (OVCAR-5 ovarian)	TGI (PC-3 prostate)	TGI (RPMI-8226 leukemia)	TGI (SF-295 CNS)	TGI (SK-MEL-2 melanoma)	TGI (SK-MEL-5 melanoma)	TGI (SNB-19 CNS)	TGI (U251 CNS)	TGI (HL-60(TB) leukemia)
O/N=C1/COC(C(F)(F)F)(C(F)(F)F)C1	> 100 µM	> 100 µM	> 100 µM	> 100 µM	> 100 µM	> 100 µM	> 100 µM	> 100 µM	> 100 µM	> 100 µM	> 100 µM	> 100 µM	> 100 µM	> 100 µM	> 100 µM	> 100 µM	> 100 µM	> 100 µM	> 100 µM	
CCOC(=O)C1(Cc2ccc3c(c2)CCC3)Cc2cc3c(cc2C1)CCC3	> 100 µM	> 100 µM	> 100 µM		37.9 µM	> 100 µM	> 100 µM	> 100 µM	33 µM	> 100 µM	87.9 µM	> 100 µM	> 100 µM	49.2 µM	70.8 µM	> 100 µM		> 100 µM	> 100 µM	> 100 µM
CN(C)Cc1cc(C(=O)/C=C/c2ccc(Cl)cc2)cc(CN(C)C)c1O	27.7 µM	38.8 µM	15.8 µM		18.6 µM	29 µM	24.8 µM	23.5 µM	49.9 µM	54.2 µM		54.5 µM	24.7 µM	42.6 µM	26 µM		27.6 µM	24.1 µM	28 µM	22.9 µM
COc1nc(C(=O)NNC(=O)c2nc(OC)c3ccccc3c2-c2ccccc2)c(-c2ccccc2)c2ccccc12	> 100 µM	> 100 µM	> 100 µM		> 100 µM	> 100 µM	> 100 µM	> 100 µM	> 100 µM	> 100 µM	> 100 µM	> 100 µM	> 100 µM	> 100 µM	> 100 µM	> 100 µM	> 100 µM	> 100 µM	> 100 µM	> 100 µM
Cc1cccc(-c2nc3ccc([N+](=O)[O-])cc3c(=O)o2)c1	> 100 µM		> 100 µM	93 µM	> 100 µM	> 100 µM	> 100 µM	> 100 µM	> 100 µM	> 100 µM	> 100 µM	> 100 µM	> 100 µM	> 100 µM	> 100 µM	> 100 µM	> 100 µM		> 100 µM	> 100 µM
CC(C)(C)C(=O)OCC1CCC[N+]2(C)CCCCC12 (stereo not given)	> 100 µM	> 100 µM	> 100 µM	> 100 µM	> 100 µM	> 100 µM	> 100 µM	> 100 µM	> 100 µM	> 100 µM	> 100 µM	> 100 µM	> 100 µM	> 100 µM	> 100 µM	> 100 µM	> 100 µM	> 100 µM	> 100 µM	
CCCCCCCCCCCCCCCCCCNc1ccn(C2OC(COP(=O)(O)OCC3OC(n4cc(C)c(=O)[nH]c4=O)CC3O)C(O)C2O)c(=O)n1 (stereo not given)	58.3 µM	34.9 µM	32.4 µM	62.8 µM	30.4 µM		31.4 µM	31.1 µM	25.7 µM	31.3 µM	39.4 µM	28.2 µM	10.2 µM	37.3 µM	33.1 µM		28.1 µM	29.8 µM	34.9 µM	
CC(C)C1OC23CCCCC2C(C#N)(C#N)C1(C#N)C(=N)O3 (stereo not given)	60 µM	77.7 µM		35.1 µM	43.8 µM		39.6 µM	39.7 µM	> 100 µM	> 100 µM		47.5 µM	> 100 µM		> 100 µM	76 µM	35.7 µM	> 100 µM	63.9 µM	30.8 µM
C=C1CC(c2ccc(OCCCN3C(=O)c4ccccc4C3=O)c(OC)c2)OC1=O (stereo not given)	6.83 µM	30.6 µM	30.6 µM	3.51 µM	13.3 µM	8.41 µM	12.4 µM	30.5 µM	2.72 µM	> 100 µM		31.9 µM	25.7 µM	6.69 µM	26.3 µM	18.4 µM	23.2 µM	28 µM	23.5 µM	2.8 µM
COC(=O)C(C)(NC(=O)C(CC(=O)OC(C)(C)C)NC(=O)OC(C)(C)C)c1ccccc1 (stereo not given)	> 100 µM	> 100 µM	> 100 µM	> 100 µM	> 100 µM	> 100 µM	> 100 µM	> 100 µM	> 100 µM	> 100 µM		> 100 µM	> 100 µM	> 100 µM	> 100 µM		> 100 µM	> 100 µM	> 100 µM	> 100 µM
CC(C)(Cc1ccccc1)NC1=NCCO1	> 100 µM	> 100 µM		> 100 µM	> 100 µM	> 100 µM	> 100 µM	> 100 µM	> 100 µM	> 100 µM	> 100 µM	> 100 µM	> 100 µM	> 100 µM	> 100 µM	> 100 µM	> 100 µM	> 100 µM	> 100 µM	> 100 µM
CCCCCN=Cc1c(O)c(O)c(C(C)C)c2cc(C)c(-c3c(C)cc4c(C(C)C)c(O)c(O)c(C=NCCCCC)c4c3O)c(O)c12	> 100 µM	> 100 µM	> 100 µM	14.6 µM	> 100 µM	87.4 µM	33.1 µM	65.1 µM		> 100 µM		> 100 µM	41.1 µM	> 100 µM		> 100 µM	28.1 µM	18.8 µM	18 µM	22.2 µM
O=C(O)c1n[nH]nc1Cl	> 100 µM	> 100 µM	> 100 µM		> 100 µM	> 100 µM	> 100 µM	> 100 µM		> 100 µM	> 100 µM	> 100 µM	> 100 µM	> 100 µM	> 100 µM	> 100 µM	> 100 µM		> 100 µM	> 100 µM
COc1ccc(C(=O)Sc2c(-c3ccccc3)c(=O)n(-c3ccccc3)c(=S)n2-c2ccccc2)cc1	44 µM	> 100 µM	> 100 µM	71.2 µM	> 100 µM	26.4 µM	> 100 µM	> 100 µM	56.1 µM	> 100 µM	> 100 µM	> 100 µM	> 100 µM		> 100 µM			> 100 µM	> 100 µM	> 100 µM
CC(=O)n1nc(-c2ccccc2)n(/N=C/c2ccc([N+](=O)[O-])cc2)c1=O	> 100 µM	> 100 µM		> 100 µM	> 100 µM	> 100 µM	> 100 µM	> 100 µM	> 100 µM	> 100 µM	> 100 µM	> 100 µM	> 100 µM	> 100 µM	> 100 µM	> 100 µM	> 100 µM	> 100 µM	> 100 µM	> 100 µM
CCC(=O)NC(Nc1cccc(F)c1C)(C(F)(F)F)C(F)(F)F	> 100 µM	> 100 µM	> 100 µM	> 100 µM	> 100 µM	> 100 µM	> 100 µM	> 100 µM	> 100 µM	> 100 µM		> 100 µM	> 100 µM	> 100 µM	> 100 µM	> 100 µM	> 100 µM	> 100 µM	> 100 µM	> 100 µM
C=C1C[C@@H]2O[C@H]3[C@H]4[C@@H](C[C@@H](C)[C@@H](OC(C)=O)[C@H]42)[C@@H](C)CO[C@@]3(C)[C@H](OC(C)=O)C[C@H]1O	> 100 µM	> 100 µM		> 100 µM	> 100 µM	> 100 µM	> 100 µM	> 100 µM	85.6 µM	> 100 µM	> 100 µM	> 100 µM	> 100 µM		> 100 µM	> 100 µM	> 100 µM	> 100 µM	> 100 µM	36.8 µM
O=C(O)c1nc(-c2ccccc2)ncc1-c1nnnn1-c1ccccc1	> 100 µM	> 100 µM	> 100 µM	> 100 µM	> 100 µM	> 100 µM	> 100 µM	> 100 µM	> 100 µM	> 100 µM		> 100 µM	> 100 µM	> 100 µM	> 100 µM	> 100 µM	> 100 µM	> 100 µM	> 100 µM	> 100 µM
O=C1N=c2ccccc2=C1c1c(O)[nH]c2ccccc12	64.3 µM	71.6 µM	> 100 µM	81.1 µM	17.8 µM	> 100 µM	35.5 µM	> 100 µM	> 100 µM	48.2 µM	29.9 µM	12.4 µM	26.2 µM	> 100 µM	> 100 µM	58.9 µM	> 100 µM	67.4 µM	24.1 µM	
Clc1c(Cl)c(Cl)c2nn(C3CCCO3)nc2c1Cl (stereo not given)	> 100 µM	> 100 µM	> 100 µM		> 100 µM	> 100 µM	> 100 µM	> 100 µM	> 100 µM	> 100 µM		> 100 µM	> 100 µM		> 100 µM	> 100 µM	> 100 µM	> 100 µM	> 100 µM	
